The test system of data set [1] is autochthonous KPC pancreatic tumors. Particulars: 50 mg/kg q.o.d. As for the experimental part: For survival study, KPC mice with 4-7 mm diameter tumors (as measured by ultrasound) were enrolled and treated every other day with Vehicle (n=9) or RMC-7977 (50 mg/kg; n=13). Animal health status and weight were checked daily and ultrasounds were performed every third day to monitor tumor growth. The survival end point was determined by overall health criteria scoring, where end point is determined by a score of 5 or greater based on the following criteria: • Moribund—immediate euthanasia • Abdominal distention due to hemorrhagic ascites—5 pts • Mild difficulty beathing—5 pts • Hypothermia—5 pts • Abdominal distention due to chylous ascites—3 pts • Loss of over 20% enrollment body weight—3 pts • Failure of grasp test—3 pts Jaundice or pallor—3 pts • Weak grasp test—2 pts • Failure to interact with other mice—1 pt • Hunched—1 pt • Pilorection/failure to groom—1 pt
Additional notes were made to better characterize the cause of death upon necropsy, including the presence of macro liver and/or lung metastases, jaundice, and tumor-mediated GI obstructions. Survival is denoted as Kaplan-Meier survival curves compared with a log-rank, Mantel-Cox test. Mice that reached endpoint criteria were sacrificed either at 4 or 24 hours after last dose in a manner consistent with IACUC standards and our own criteria scoring. Tissue was collected at time of necropsy for further analysis.

Another data set relates to CC3+ apoptotic cells. Description: CC3 IHC in Capan-1 xenograft model (tumor, colon, skin). The class given is in vivo, mouse. As for the experimental part: Studies were terminated early if tumor burden reached humane endpoint. Body weights were collected twice a week during the study. Means±s.e.m were plotted in the waterfall plots. For the single-dose pharmacokinetic/pharmacodynamic (PK/PD) study, mice were randomized and assigned into groups (n=3-6/dose/timepoint). […] Sakura, 4583) solution or snap-frozen in LN2 for further analysis. Whole blood was transferred into K2EDTA Microtainer tubes (BD, 365974), incubated for 5 minutes and snap-frozen in LN2. To stain tissues collected from the Capan-1 xenograft model, a similar protocol was used with the following changes. Sections were stained using a Leica BOND automated staining system and primary antibodies were detected with the Leica BOND Polymer detection kit (3-P—PV6119). Stained slides were scanned and digitized with a 3DHistotech Pannoramic whole slide scanner at 20× magnification. Image analysis was performed using HALO software from Indica Labs.

Molecules are shown by their SMILES.

Regarding `CCn1c(-c2cc(N3CCN(C4CC4)CC3)cnc2[C@H](C)OC)c2c3cc(ccc31)-c1csc(n1)C[C@H](NC(=O)[C@H]1[C@@H]3COC[C@@H]31)C(=O)N1CCC[C@H](N1)C(=O)OCC(C)(C)C2` [RMC-7977], in data set [1], the “body weights compared with control KPC mice” value is listed as “similar” and the “tumor response by 3D-ultrasound” value is on record as “tumor stabilizations or regressions”. Also, in data set [1] (KPC mice), the “increase in median survival compared to controls” value was determined as 3.5 fold. In addition, the “time of peak of CC3+ apoptotic cells post-dose” value in the data set on CC3+ apoptotic cells (Capan-1 CDX tumors) amounted to 8 h. In the data set with CC3+ apoptotic cells (Capan-1 CDX tumors, single dose), the “CC3+ apoptotic cells in tumors relative to vehicle” value was “notable increase”. Besides, the “apoptotic cells in colon or skin” value in the data set with CC3+ apoptotic cells (tumor-bearing animals, any timepoint) was “few apoptotic cells”.
